Laboratory results: PubChem BioAssay AID248 (DTP/NCI, 2004)
Several values for one entry are separate records, joined by “and”; a condition that tells them apart may be missing. Equal entries are not always repeated. Inconclusive results and toxic doses are left out. Cut-off read from the data, not from the text of the source: active = T/C of 150% or more; inactive = T/C below 125%.

Tested on: L1210 leukemia ip in BDF1 mice, survival T/C
Assay: NCI In Vivo Anticancer Drug Screen. Data for tumor model L1210 Leukemia (intraperitoneal) in B6D2F1 (BDF1) mice
Conditions: endpoint: mean survival time, higher = longer survival
Procedure, shortened: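 Read-out is survival time, reported as the treated-group measurement over the vehicle-control measurement.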

[1] = dose: 50.0 mg/kg/injection, schedule: Q01DX009 (ip), vehicle: saline
[2] = dose: 100.0 mg/kg/injection, schedule: Q04DX002 (ip), vehicle: Klucel (hydroxypropylcellulose) (HPC)
[3] = dose: 200.0 mg/kg/injection, schedule: Q04DX002 (ip), vehicle: Klucel (hydroxypropylcellulose) (HPC)
[4] = dose: 400.0 mg/kg/injection, schedule: Q04DX002 (ip), vehicle: Klucel (hydroxypropylcellulose) (HPC)
[5] = dose: 100.0 mg/kg/injection, schedule: Q01DX009 (ip), vehicle: Klucel (hydroxypropylcellulose) (HPC)
[6] = dose: 200.0 mg/kg/injection, schedule: Q01DX009 (ip), vehicle: Klucel (hydroxypropylcellulose) (HPC)
[7] = dose: 400.0 mg/kg/injection, schedule: Q01DX009 (ip), vehicle: Klucel (hydroxypropylcellulose) (HPC)

Measured: T/C

CC(NC(=O)CCN)C(=O)O (centres undefined)
inactive: dose: 25.0 mg/kg/injection, schedule: Q04DX002 (ip), vehicle: saline 96 % of control | dose: 50.0 mg/kg/injection, schedule: Q04DX002 (ip), vehicle: saline 89 % of control | dose: 100.0 mg/kg/injection, schedule: Q04DX002 (ip), vehicle: saline 102 % of control

CON(C)CC(Cl)c1ccccc1 (centres undefined)
inactive: dose: 6.25 mg/kg/injection, schedule: Q01DX009 (ip), vehicle: saline 100 % of control | dose: 6.25 mg/kg/injection, schedule: Q04DX003 (ip), vehicle: saline with Tween-80 98 % of control | dose: 12.5 mg/kg/injection, schedule: Q01DX009 (ip), vehicle: saline 100 % of control | dose: 12.5 mg/kg/injection, schedule: Q04DX003 (ip), vehicle: saline with Tween-80 96 % of control | dose: 25.0 mg/kg/injection, schedule: Q01DX009 (ip), vehicle: saline 92 % of control | dose: 25.0 mg/kg/injection, schedule: Q04DX003 (ip), vehicle: saline with Tween-80 104 % of control | [1] 92 % of control | dose: 50.0 mg/kg/injection, schedule: Q04DX003 (ip), vehicle: saline with Tween-80 96 % of control and 98 % of control

CCOC(=O)C(C)(C)C(=O)C(C)C
inactive: [2] 100 % of control | [3] 95 % of control | [4] 103 % of control

CCOC(=O)C(C(=O)c1ccccc1)=P(c1ccccc1)(c1ccccc1)c1ccccc1
inactive: dose: 100.0 mg/kg/injection, schedule: Q04DX003 (ip), vehicle: Klucel (hydroxypropylcellulose) (HPC) 100 % of control | dose: 200.0 mg/kg/injection, schedule: Q04DX003 (ip), vehicle: Klucel (hydroxypropylcellulose) (HPC) 100 % of control | dose: 400.0 mg/kg/injection, schedule: Q04DX003 (ip), vehicle: Klucel (hydroxypropylcellulose) (HPC) 102 % of control

O=C1Nc2ncnn2C1=O
inactive: dose: 100.0 mg/kg/injection, schedule: Q01DX005 (ip), vehicle: Klucel (hydroxypropylcellulose) (HPC) 98 % of control | [5] 101 % of control | [2] 93 % of control | dose: 200.0 mg/kg/injection, schedule: Q01DX005 (ip), vehicle: Klucel (hydroxypropylcellulose) (HPC) 98 % of control | [6] 93 % of control | [3] 96 % of control | dose: 400.0 mg/kg/injection, schedule: Q01DX005 (ip), vehicle: Klucel (hydroxypropylcellulose) (HPC) 98 % of control | [7] 101 % of control | [4] 104 % of control

O=C(Nc1ccccc1F)Oc1ccc2ccccc2c1
inactive: [5] 106 % of control | [6] 107 % of control | [7] 103 % of control

CCN(CC)CCOC(=O)CSC1C2CC3C(C2)C31 (centres undefined)
inactive: [1] 94 % of control | dose: 100.0 mg/kg/injection, schedule: Q01DX009 (ip), vehicle: saline 90 % of control | dose: 200.0 mg/kg/injection, schedule: Q01DX009 (ip), vehicle: saline 123 % of control

COc1ccc(CCO)cc1OC
inactive: dose: 50.0 mg/kg/injection, schedule: Q01DX001 (ip), vehicle: carboxymethylcellulose (CMC) 95 % of control | dose: 100.0 mg/kg/injection, schedule: Q01DX009 (ip), vehicle: water 93 % of control | dose: 100.0 mg/kg/injection, schedule: Q04DX003 (ip), vehicle: water 100 % of control | dose: 200.0 mg/kg/injection, schedule: Q01DX009 (ip), vehicle: water 93 % of control | dose: 200.0 mg/kg/injection, schedule: Q04DX003 (ip), vehicle: water 97 % of control | dose: 400.0 mg/kg/injection, schedule: Q01DX001 (ip), vehicle: carboxymethylcellulose (CMC) 97 % of control | dose: 400.0 mg/kg/injection, schedule: Q01DX009 (ip), vehicle: water 95 % of control | dose: 400.0 mg/kg/injection, schedule: Q04DX003 (ip), vehicle: water 97 % of control

COc1cc(/C=N/NC(=O)c2cc(OC)c(OC)c(OC)c2)ccc1O
inactive: dose: 100.0 mg/kg/injection, schedule: Q01DX009 (ip), vehicle: saline with Tween-80 93 % of control | dose: 200.0 mg/kg/injection, schedule: Q01DX009 (ip), vehicle: saline with Tween-80 93 % of control | dose: 400.0 mg/kg/injection, schedule: Q01DX009 (ip), vehicle: saline with Tween-80 90 % of control

Cc1ccc(NC(=O)N(CCCl)N=O)c(C)c1
inactive: dose: 100.0 mg/kg/injection, schedule: Q01DX001 (ip), vehicle: other 101 % of control
active: dose: 10.0 mg/kg/injection, schedule: Q01DX009 (ip), vehicle: other 180 % of control | dose: 16.0 mg/kg/injection, schedule: Q01DX009 (ip), vehicle: other 241 % of control | dose: 24.0 mg/kg/injection, schedule: Q01DX009 (ip), vehicle: other 158 % of control | dose: 25.0 mg/kg/injection, schedule: Q01DX001 (ip), vehicle: other 153 % of control | dose: 50.0 mg/kg/injection, schedule: Q01DX001 (ip), vehicle: other 158 % of control
